Key:
human COX-II = biological target: T1, human COX-II (Homo sapiens, UniProt P35354); test: Human Enzyme Assay, COX-II (recombinant enzyme, PGE2 ELISA); type: biochemical; conditions: 10 μM arachidonic acid, 10-20 min pre-incubation
T1 construct: made in house; host or cells: SF9 insect cells, recombinant baculovirus (pVL1393); coding fragment from Caymen Chemical, Ann Arbor, Mich
T1 sequence (P35354 18-604): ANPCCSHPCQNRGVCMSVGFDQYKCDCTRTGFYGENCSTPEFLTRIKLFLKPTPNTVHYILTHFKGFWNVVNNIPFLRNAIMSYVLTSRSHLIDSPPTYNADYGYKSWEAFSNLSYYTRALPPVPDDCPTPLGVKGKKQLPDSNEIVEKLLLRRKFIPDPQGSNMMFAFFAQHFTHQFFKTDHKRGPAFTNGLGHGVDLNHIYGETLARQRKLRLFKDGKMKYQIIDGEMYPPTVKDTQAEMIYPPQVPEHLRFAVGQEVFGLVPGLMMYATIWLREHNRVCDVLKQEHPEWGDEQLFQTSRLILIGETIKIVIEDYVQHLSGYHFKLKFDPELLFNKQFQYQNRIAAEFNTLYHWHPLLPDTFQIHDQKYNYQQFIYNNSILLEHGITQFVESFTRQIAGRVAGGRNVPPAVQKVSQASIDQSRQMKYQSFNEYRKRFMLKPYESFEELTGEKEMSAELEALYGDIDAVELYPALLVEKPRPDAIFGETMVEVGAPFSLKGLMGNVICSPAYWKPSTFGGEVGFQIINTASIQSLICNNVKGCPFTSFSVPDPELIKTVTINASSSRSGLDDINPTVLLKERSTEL
Experimental: (§1) The compounds of the invention are evaluated with respect to COX-I and COX-II activity in vitro using an enzyme based assay according to the following assay procedure.
(§2) A 2.0 kb fragment containing the coding region for either human or murine COX-I (Caymen Chemical, Ann Arbor, Mich.), or human or murine COX-II (Caymen Chemical, Ann Arbor, Mich.), was cloned into a BamH1 site of the baculovirus transfer vector pVL1393 (Invitrogen, Palo Alto, Calif.) to generate a baculovirus transfer vector. Recombinant baculoviruses were isolated by transfecting 4 μg of baculovirus transfer vector DNA into SF9 cells (2×10e8) (Invitrogen, Palo Alto, Calif.) along with 200 ng of linearized bacium by the phosphate method. See M. D. Summers et al., "A Manual of Methods for Baculovirus Vectors and Insect Cell Culture Procedure," TEXAS AGRICULTURE EXPERIMENTAL STATION BULLETIN, No. 1555 (1987), which is incorporated herein by reference. Recombinant viruses were purified by three rounds of plaque purification, and high titer (10e7-10e8 pfu/ml) stocks of virus were prepared. […]
(§3) COX activity was assayed as PGE2 formed/μg protein/time using an ELISA (Caymen Chemical, Ann Arbor, Mich.) to detect the prostaglandin E2 released. […] The PGE2 formed was measured by standard ELISA technology (Cayman Chemical, Ann Arbor, Mich.). […]

human COX-I = biological target: T2, human COX-I (Homo sapiens, UniProt P23219); test: Human Enzyme Assay, COX-I (recombinant enzyme, PGE2 ELISA); type: biochemical; conditions: 10 μM arachidonic acid, 10-20 min pre-incubation
T2 construct: made in house; host or cells: SF9 insect cells, recombinant baculovirus (pVL1393); coding fragment from Caymen Chemical, Ann Arbor, Mich
T2 sequence (P23219 24-599): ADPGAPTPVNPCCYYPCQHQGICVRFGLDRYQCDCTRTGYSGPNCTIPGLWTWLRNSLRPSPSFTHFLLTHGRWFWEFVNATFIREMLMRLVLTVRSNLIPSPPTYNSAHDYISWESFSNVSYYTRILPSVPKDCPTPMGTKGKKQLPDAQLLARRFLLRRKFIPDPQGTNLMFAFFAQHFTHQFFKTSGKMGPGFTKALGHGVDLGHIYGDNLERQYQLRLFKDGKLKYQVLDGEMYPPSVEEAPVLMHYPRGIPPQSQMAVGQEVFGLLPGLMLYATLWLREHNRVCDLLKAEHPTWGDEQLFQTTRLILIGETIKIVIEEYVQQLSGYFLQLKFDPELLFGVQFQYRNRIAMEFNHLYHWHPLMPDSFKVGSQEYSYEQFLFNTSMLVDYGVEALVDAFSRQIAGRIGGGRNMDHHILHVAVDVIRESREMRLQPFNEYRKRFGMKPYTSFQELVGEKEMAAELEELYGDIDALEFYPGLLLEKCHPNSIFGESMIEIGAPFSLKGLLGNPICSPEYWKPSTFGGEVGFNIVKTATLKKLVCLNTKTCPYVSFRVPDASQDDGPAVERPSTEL
Experimental: as §1, §2, §3

cellular COX-II = biological target: T3, cellular COX-II (Homo sapiens, UniProt P35354); test: Cellular COX-II Assay (Cell Fibroblast Assay); type: cell-based; conditions: IL-1 beta stimulated human fetal dermal fibroblasts; 20 μM arachidonic acid; PGE2 by ELISA
T3 construct: stimulated human fetal dermal fibroblasts (HFDF, derived from primary cell cultures); endogenous in cells; host or cells: human fetal dermal fibroblasts (HFDF), primary culture, stimulated overnight with IL-1 beta
T3 sequence (P35354 18-604): T1 sequence (P35354 18-604)
Experimental: The results for this assay, as well as for the next assay (COX-II Cell Fibroblast Assay) are expressed in terms of COX-I or II activity as an IC50 value (50% inhibitory concentration), as defined as the amount of prostaglandin E2 (PGE2) formed per protein per time in response to the enzyme substrate arachidonic acid.
The compounds of the invention are evaluated with respect to the inhibition of cellular COX-II in vitro according to the following Cellular COX-II Assay (Cell Fibroblast Assay).
Inhibition of cellular COX-II by test compounds is determined using stimulated human fetal dermal fibroblasts (HFDF, derived from primary cell cultures). […] Supernatants are collected and Prostaglandin E2 (PGE2) production is measured by an enzyme-linked immunosorbent assay (ELISA; antibodies produced by Cayman Chemical Company, Ann Arbor, Mich.). […]
The procedure uses information for indomethacin and the rest of the plate in defining the minimum and maximum response. […] For the other compounds, if a response is measured which is less than the response for the unstimulated wells, then this response may be considered to be another estimate of a minimal response. […]

COX II enzyme = conditions: E. Meade et al., J. Biol. Chem. 268, 6610 (1993); cited from earlier work
[1] = Futaki et al., Gen. Pharmac. 24, 105 (1993); cited from earlier work
[2] = Futaki et al., Gen. Pharmac. 24, 105 (1993); cited from earlier work; remark: listed apart in the source

IC50 (human COX-II) | IC50 (human COX-I) | Compound | other results
1340 nM | > 100000 nM | CC(C)(C)c1cc(C[C@H]2CCC[C@H]2OCC(=O)O)cc(C(C)(C)C)c1 (relative stereo) [Example 7, (cis)-2-[[2-[3,5-bis(1,1-dimethylethyl) -phenylmethyl]cyclopentyl]oxy]-acetic acid] | 
> 100000 nM | > 100000 nM | CC(C)(C)c1cc(C[C@@H]2CCC[C@H]2OCC(=O)O)cc(C(C)(C)C)c1 (relative stereo) [Example 8, (trans)-2-[[2-[3,5-bis(1,1-dimethylethyl) -phenylmethyl]cyclopentyl]oxy]acetic acid] | IC50 (cellular COX-II): 2 nM
 |  | COc1ccc2cc(CC(=O)O)ccc2c1 [6-methoxy-2-napthylacetic acid] | selective inhibition of COX II enzyme (COX II enzyme): selectively inhibit the COX II enzyme
 |  | CS(=O)(=O)Nc1ccc([N+](=O)[O-])cc1OC1CCCCC1 [N-(2-cyclohexyloxy-4-nitrophenyl)methanesulfonamide] | anti-inflammatory activity [1]: anti-inflammatory; gastric side effects [2]: lacks gastric side effects
